# In patent US20230355597A1, “COMPOUNDS, COMPOSITIONS, AND METHODS FOR THE TREATMENT AND PREVENTION OF AVIAN PATHOGENIC E. COLI (APEC)” (OHIO STATE INNOVATION FOUNDATION, priority 2018, published 2023):
# What was measured:
# APEC O2 in HD-11 cells = assay: Intracellular survival assay (AI-2 inhibitors); details: O2, HD-11, 100 µM, 6 h
# [1] = test system: AI-2 activity of APEC O115; assay: AI-2 bioluminescence indicator assay (V. harveyi BB170); details: APEC O115, 100 µM
# [2] = test system: QS and virulence associated genes of APEC O78; assay: qRT-PCR of QS-regulated and virulence factors genes; format: cell-based, avian pathogenic Escherichia coli (APEC); details: 100 µM, 10 h
# Protocol: Quantitative real-time reverse transcription PCR (qRT-PCR). […] APEC O78 was grown in the presence of 100 µM of each compound in a 96-well plate at 37° C. for 10 h. APEC O78 culture treated with 1 µL of 100% DMSO was used as […]. Total RNA was extracted from duplicate wells for each compound (200 µL) using a miRNeasy Mini Kit (Qiagen). RNA quality and quantity was determined by nanodrop 2000 C spectrophotometer (Thermo scientific). Traces of DNA was removed using Genomic DNA removal mix (Qiagen). Approximately, 5 µg of purified RNA was used to synthesize cDNA using the Qiagen RT^2 First Strand Kit (Qiagen). The qRT-PCR was performed using SensiMix™ SYBER® Hi-Rox qPCR Master Mix (Bioline) according to manufacturer instructions in a realplex^2 mastercycler (Eppendorf) with 55° C. annealing temperature. Gene-specific primers were designed using PrimerQuest Tool and obtained from integrated DNA technologies (IDT). The data were normalized to the house-keeping gene, glyceraldehyde-3-phosphate dehydrogenase (GAPDH). The relative fold change was calculated using the ΔΔCt method. Three independent experiments were conducted.
# Rif^r APEC O78 [3] = assay: Wax moth (Galleria mellonella) larva infection model (AI-2 inhibitors); details: 48 h post treatment
# AI-2 activity of APEC O8 = assay: AI-2 bioluminescence indicator assay (V. harveyi BB170); details: APEC O8, 100 µM
# AI-2 activity of APEC O1 = assay: as above; details: APEC O1, 100 µM
# [4] = test system: AI-2 activity of APEC O78; assay: as above; details: APEC O78, 100 µM
# [5] = test system: AI-2 activity of APEC O18; assay: as above; details: APEC O18, 100 µM
# [6] = test system: AI-2 activity of APEC O109; assay: as above; details: APEC O109, 100 µM
# [7] = test system: AI-2 activity of APEC O35; assay: as above; details: APEC O35, 100 µM
# [8] = test system: AI-2 activity of APEC O15; assay: as above; details: APEC O15, 100 µM
# AI-2 activity of APEC O2 = assay: as above; details: APEC O2, 100 µM
# Rif^r APEC O78 [9] = assay: In vivo screening of quorum sensing inhibitors in APEC infected broiler chickens
smiles,measurement,setting,value
Cc1ccc(CN2CCN(CCCc3ccccc3)CC2)cc1 [C5],clearance of intracellular APEC,APEC O2 in HD-11 cells,100%
same,reduction of intracellular survival,APEC O2 in HD-11 cells; vs DMSO,3.3 logs
same,Inhibition % of AI-2 activity,[1],63%
same,expression of fliP,[2],down-regulated
same,expression of fpr,[2],down-regulated
same,larval death,Rif^r APEC O78 [3],no larval death
same,Inhibition % of AI-2 activity,AI-2 activity of APEC O8,18%
same,Inhibition % of AI-2 activity,AI-2 activity of APEC O1,46%
same,Inhibition % of AI-2 activity,[4],83%
same,Inhibition % of AI-2 activity,[5],61%
same,Inhibition % of AI-2 activity,[6],69%
same,Inhibition % of AI-2 activity,[7],68%
same,Inhibition % of AI-2 activity,[8],45%
same,Inhibition % of AI-2 activity,AI-2 activity of APEC O2,89%
same,reduction in chicken mortality,Rif^r APEC O78 [9]; DMSO control mortality normalized to 100%,100%
same,average lesion score reduction,"Rif^r APEC O78 [9]; liver, heart, lung and airsac, vs DMSO",2.1-2.3
same,reduction of bacterial load in internal organs,"Rif^r APEC O78 [9]; liver, lung, heart, and kidney, vs DMSO control, 'up to'",5.2-6.1 log CFU/g
same,Mortality rate (%),"Rif^r APEC O78 [9]; oral gavage once a day, day 4 to day 8, DMSO control 66.7%",0%
same,"Reduction in APEC lesions severity, Air-sacs (%)",Rif^r APEC O78 [9]; vs DMSO treated control,93.3%
same,"Reduction in APEC lesions severity, Heart (%)",Rif^r APEC O78 [9]; vs DMSO treated control,87.5%
same,"Reduction in APEC lesions severity, Liver (%)",Rif^r APEC O78 [9]; vs DMSO treated control,81.8%
same,"Reduction in APEC lesions severity, Lung (%)",Rif^r APEC O78 [9]; vs DMSO treated control,88.9%
same,effect on body weight gain,Rif^r APEC O78 [9]; vs non-treated and non-infected control group,increased BWG
